Measured values taken from PMC2889824, “Structural Optimization and De Novo Design of Dengue Virus Entry Inhibitory Peptides” (PLoS Neglected Tropical Diseases, 2010).
Like-named read-outs stand apart in the source and are kept apart here. Where no end group is shown, it is not given here.

Key:
[1] = tested on: DENV-2 strain NG-C; conditions: cited from earlier work; for DENV inhibitory activity of wild type mimic peptides (in words): previous work; for IC50: previously tested wild type peptides denoted with an asterisk, read-out: IC50 (did not achieve 50% inhibition), previously tested wild type peptides
Source text: Table 1 Sequences and IC50 values of peptides. | column: IC50 (µM) || We had previously identified several E protein regions where peptides mimicking the E protein sequence might function as inhibitors. […] These included a peptide derived from the domain II fusion sequence (DN80, corresponding to amino acids 96–114 in the DENV-2 E protein) and two overlapping peptides derived from the domain II hinge region (DN57 and DN81, corresponding to amino acids 205–223 and 205–232, respectively). Predictions from crystal structures, [14], [15], as well as the previously confir ...

[2] = tested on: DENV-2 strain NG-C; type: cell-based, dengue virus-2 (DENV-2); conditions: for maximum inhibition: 24 h; for inhibition of DENV-2 infection (in words): DENV-2 NG-C, any concentration tested
Procedure: LLC-MK2 target cells were seeded at a density of 1×10^5 cells in each well of a 6-well plate 24 h prior to infection. Approximately 200 focus forming units (FFU) of virus were incubated with or without peptide in serum-free DMEM for 1 h at rt. Virus/peptide or virus/control mixtures were allowed to infect confluent target cell monolayers for 1 h at 37°C, with rocking every 15 m, after which time the medium was aspirated and overlaid with fresh DMEM/10% (v/v) FBS containing 0.85% (w/v) Sea-Plaque Agarose (Cambrex Bio Science, Rockland, ME) without rinsing. Cells with agar overlays were incubated at 4°C for 20 m to set the agar. Infected cells were then incubated at 37°C with 5% CO2 for 5 days. Infected cultures were fixed with 10% formalin overnight at 4°C, permeablized with 70% (v/v) ethanol for 20 m, and rinsed with phosphate buffered saline, pH 7.4 (PBS) prior to immunostaining. Virus foci were detected using a specific mouse mAb from hybridoma E60 (obtained from M. Diamond at Washington University), followed by horseradish peroxidase-conjugated goat anti-mouse immunoglobulin (Pierce, Rockford, IL), and developed using AEC chromogen substrate (Dako, Carpinteria, CA). Results are expressed as the average of at least two independent trials with three replicates each. IC50 values were determined using variable slope sigmoidal dose-response curve fits with GraphPad Prism 4.0 software (LaJolla, CA), except for DN81opt, which was determined graphically due to a lack of data points to produce a reasonable curve fit.

[3] = tested on: LLC-MK2 cells; type: cell-based, Macaca mulatta
Procedure: Cytotoxicity of peptides was measured by monitoring mitochondrial reductase activity using the TACS™ MTT cell proliferation assay (R&D Systems, Inc., Minneapolis, MN) according to the manufacturer's instructions. Dilutions of peptides in serum-free DMEM were added to confluent monolayers of LLC-MK2 cells in 96-well plates for 1 h at 37°C, similar to the focus forming inhibition assays, and incubated at 37°C with 5% (v/v) CO2 for 24 h. Absorbance at 560 nm was measured using a Tecan GeniosPro plate reader (Tecan US, Durham, NC).

[4] = molecular target: T1, purified, recombinant, 80% truncated DENV-2 S1 E protein (Dengue virus type 2, UniProt P12823); assay: biochemical; type: binding, DENV-2 strain S1; conditions: for kon: read-out: association rate constant ka; for koff: read-out: dissociation rate constant kd
T1 construct: Purified, recombinant, 80% truncated DENV-2 S1 E protein was obtained from Hawaii Biotechnology; purchased Hawaii Biotechnology (Honolulu, HI)
Procedure: Real time binding assays between peptides and purified DENV-2 S1 E protein were performed using biolayer interferometry on an Octet QK system (Fortebio, Menlo Park, CA). This system monitors interference of light reflected from the surface of a fiber optic sensor to measure the thickness of molecules bound to the sensor surface. Purified, recombinant, 80% truncated DENV-2 S1 E protein was obtained from Hawaii Biotechnology (Honolulu, HI). Peptides were N-terminally biotinylated with a 5∶1 molar ratio of NHS-LC-LC-Biotin (Pierce/ThermoFisher, Rockford, IL) in PBS pH 6.5 at 4°C. Excess biotinylation reagent was removed using Pepclean C-18 spin columns (Pierce/ThermoFisher, Rockford, IL). Biotinylated peptides were coupled to kinetics grade streptavidin high binding biosensors (Fortebio, Menlo Park, CA) at several different concentrations. Sensors coated with peptides were allowed to bind to E protein in PBS with 0.02% (v/v) Tween-20 and 1 mg/ml BSA at several different E protein concentrations. Binding kinetics were calculated using the Octet QK software package, which fit the observed binding curves to a 1∶1 binding model to calculate the association rate constants. E protein was allowed to dissociate by incubation of the sensors in PBS. Dissociation curves were fit to a 1∶1 model to calculate the dissociation rate constants. Binding affinities were calculated as the kinetic dissociation rate constant divided by the kinetic association rate constant.

[5] = tested on: DENV-2 binding to LLC-MK2 cells; assay: Virus:cell binding inhibition assay (qRT-PCR); type: cell-based, dengue virus-2 (DENV-2); conditions: virus pre-incubated 1 h 4°C, bound to LLC-MK2 2 h 4°C, washed, compared to control virus without peptide
Procedure: Binding inhibition assays were modified from Thaisomboonsuk, et al.}. Briefly, LLC-MK2 monolayers were rinsed in 4°C DMEM containing 0.8% BSA and 25 mM HEPES, pH 7.5. Virus was incubated at 4°C with peptides, control anti-dengue serum, or heparan sulfate in DMEM/BSA/HEPES for one hour before adding to the monolayers for 2 hours at 4°C. Monolayers were rinsed 3 times with cold DMEM/BSA/HEPES media prior to RNA extraction using the Qiagen RNeasy mini kit (Valencia, CA) per manufacturers instructions. Quantitative, real time, reverse transcriptase polymerase chain reaction (qRT-PCR) was conducted utilizing the Roche Lightcycler RNA Master SYBR Green 1 qRT-PCR kit (Basel, Switzerland), using primers Den_F (TTAGAGGAGACCCCTCCC) and Den_R ([…]) from Chutinimitkul et al.}. and the following cycling conditions: 1 h at 61°C, 30 s at 95°C, followed by 45 cycles of: 5 s at 95°C, 20 s at 61°C, and 30 s at 72°C. Cp values were used to estimate infectious units according to a standard curve. Independent assays were repeated three times, in duplicate or triplicate.

[6] = FFU reduction, DENV-2 NG-C on LLC-MK2 cells, dashed line = tested, 50% inhibition not achieved, read-out: IC50 (did not achieve 50% inhibition)
[7] = MTT, confluent LLC-MK2, 24 h post-exposure, any concentration tested, one-way ANOVA, P>0.05

## AWLVHRQWFLDLPLPWLPG [DN81wt, previously tested wild type peptide from the domain II hinge region]
[1]
  DENV inhibitory activity of wild type mimic peptides (in words): did not show substantial DENV inhibitory activity
  IC50: > 50 µM

## AWLVHTQWFLDLPLPWLPGADTQGSNWI [DN57wt, previously tested wild type peptide from the DENV-2 E domain II hinge region]
[1]
  DENV inhibitory activity of wild type mimic peptides (in words): did not show substantial DENV inhibitory activity
  IC50: > 50 µM

## EWSKHREGRWHTALTGATEI [1OAN3, de novo designed peptide, E protein region 251–270]
[2]; [6]
  IC50: > 50 µM

## FWFTLIKTQAKQPARYRRFC [1OAN1]
[2]; -2 strain NG-C, 1 h
  IC50: 7 ± 4 µM
[2]; -2 strain NG-C, 50 µM
  maximum inhibition: 99%
[3]; [7]
  cellular toxicity: not toxic at any concentration tested
[4]
  Kd: 0.45 µM
  kon: 3900 M⁻¹ s⁻¹
  koff: 0.0016 s⁻¹

## MVIVQHQWMQIMRWPWQPE [DN80opt]
[2]; [6]
  IC50: > 50 µM

## QQCFRFPALRKKATYTRFWI [1OAN1-scram, scrambled version of 1OAN1 of identical composition]
[2]; [6]
  IC50: > 50 µM
[2]; FFU reduction
  inhibition of DENV-2 infection (in words): did not inhibit infection by DENV-2 at any concentration tested
[3]; [7]
  cellular toxicity: not toxic at any concentration tested

## RQMRAWGQDYQHGGMGYSC [DN81opt]
[2]; -2 strain NG-C, 1 h
  IC50: 36 ± 6 µM
[2]; -2 strain NG-C, 50 µM
  maximum inhibition: 57%

## RWMVWRHWFHRLRLPYNPGKNKQNQQWP [DN57opt]
[2]; -2 strain NG-C, 1 h
  IC50: 8 ± 1 µM
[2]; -2 strain NG-C, 20 µM
  maximum inhibition: 97%
[3]
  cellular toxicity: mildly toxic
[4]
  Kd: 1.2 µM
  kon: 800 M⁻¹ s⁻¹
  koff: 0.00077 s⁻¹

## RWRHLKKMQRLQPRNPNWPGQFWVHYNW [DN57opt-scram, scrambled version of DN57opt of identical composition]
[2]; [6]
  IC50: > 50 µM
[2]; FFU reduction
  inhibition of DENV-2 infection (in words): did not display inhibition at any concentration tested
[3]; [7]
  cellular toxicity: not toxic at any concentration tested

## WHTVEPIVTEKDRPVNYEWE [1OAN4, de novo designed peptide, E protein region 351–370]
[2]; [6]
  IC50: > 50 µM

## YPENLEYRVYITPHPGEEHH [1OAN2, de novo designed peptide, E protein region 131–150]
[2]; [6]
  IC50: > 50 µM

## heparan sulfate
[5]
  virus:cell binding: reduced cell binding
